# Measured values reported in article PMC12670426 (Journal of Medicinal Chemistry, 2025).
# Read-outs that look alike come from different tables or passages of the source.
# Experiments:
# Cytotoxicity assay, THP1 = type: cell-based; settings: human, THP1 cells, viability dye, flow cytometry
# Method: (§1) To evaluate in vitro cytotoxicity and support its potential application in inflammatory and fibrotic disease models, the following panel of cell lines, representing the relevant biological systems, was used: HEK293, HepG2, THP1, Jurkat E6.1, and LX2. HEK293, HepG2, and Jurkat E6.1 cells were seeded at 400,000 cells/mL, THP1 cells at 500,000 cells/mL, and LX2 cells at 200,000 cells/mL in 96-well plates (cell culture-treated, VWR) in 100 μL/well. Cells were treated with the tested compounds in a serial dilution (300, 100, 33.3, 11.1, and 3.7 μM) for 24 h. Untreated cells served as negative controls to establish the baseline viability threshold. Cell viability was assessed using a viability dye (Zombie Violet Fixable Viability Kit, BioLegend) following the manufacturer’s instructions and analyzed by flow cytometry (see below).
# (§2) Cells or beads from screening assays prepared for flow cytometry were analyzed by the CytoFlex S instrument (Beckman Coulter). Data acquisition was performed using CytExpert software (v2.5, Beckman Coulter). Debris was excluded by forward and side scatter gating, followed by doublet exclusion. Data were analyzed using FlowJo software (v10, BD Biosciences).
# [1] = Microsomal stability assay, human liver microsomes; type: in vitro ADME; settings: pooled liver microsomes, pH 7.4, human liver microsomes 0.5 mg/mL, NADPH
# Method: (§3) Microsomal stability was determined using 0.5 mg/mL of pooled human, mouse, or rat liver microsomes (Thermo Fisher Scientific) in 90 mM TRIS-Cl buffer (pH 7.4) containing 2 mM NADPH and 2 mM MgCl2. Test compounds (10 μM) were added, and the resulting mixture was incubated at 37 °C for 10, 60, 120, and 180 min. The reactions were terminated by the addition of four volumes of ice-cold methanol, followed by vigorous mixing. The samples were left at −20 °C for 30 min and then stored at 4 °C overnight. The next day, samples were centrifuged, and supernatants were diluted with four volumes of 30% methanol in water. Zero time points were prepared by adding ice-cold methanol to the mixture of compounds and cofactors prior to the addition of microsomes. The samples were then analyzed using the Echo-MS system (SCIEX) with MRM transition monitoring, except for compound 3af, which was analyzed by LC–MS/MS as described in the plasma stability assay.
# [2] = Microsomal stability assay, rat liver microsomes; type: in vitro ADME; settings: pooled liver microsomes, pH 7.4, rat liver microsomes 0.5 mg/mL, NADPH
# Method: as §3
# [3] = Kinetic solubility assay in PBS; type: physicochemical; settings: aqueous buffer, kinetic from dmso stock; PBS at pH 7.4, 100 μM final, 2 h room temperature
# Method: The solutions were incubated at room temperature for 2 h and filtered by centrifugation. Filtrates were diluted 100-fold with 50% acetonitrile in water and then analyzed on the Echo-MS system (SCIEX) using MRM transition monitoring, except for compound 3af, which was analyzed by LC–MS/MS as described in the plasma stability assay. Compound concentrations were quantified against calibration curves prepared in the identical matrix as the samples.
# [4] = Cytotoxicity assay, HepG2; type: cell-based; settings: human, HepG2 cells, viability dye, flow cytometry
# Method: as §1, §2
# [5] = Cytotoxicity assay, panel of five human cell lines; type: cell-based; settings: HEK293, HepG2, THP-1, Jurkat E6.1 and LX2 cells; summary in text across panel of five human cell lines
# Method: as §1, §2
# [6] = Cytotoxicity assay, Jurkat E6.1; type: cell-based; settings: human, Jurkat E6.1 cells, viability dye, flow cytometry
# Method: as §1, §2
# [7] = target: T1, human galectin-3C (Gal-3C, C-terminal CRD of galectin-3) (Homo sapiens, UniProt P17931); test: Competitive fluorescence polarization assay, Gal-3C; type: binding
# T1 construct: only the C-terminal domain was used (Gal-3C); 6xHis tag with TEV protease site (N, cleaved yes); made in house; host or cells: BL21 Escherichia coli (pET-15b)
# T1 sequence (P17931 118-248 limits assumed): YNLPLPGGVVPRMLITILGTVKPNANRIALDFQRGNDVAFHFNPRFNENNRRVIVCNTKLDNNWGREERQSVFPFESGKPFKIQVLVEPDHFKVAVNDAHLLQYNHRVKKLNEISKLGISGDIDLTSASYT
# Outline: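 Competitive fluorescence polarization (anisotropy) with a fluorescent probe; full-length Gal-1 and C-terminal CRD construct of Gal-3. Read after 30–60 min incubation at 25 °C. Kd fitted with Wang's exact cubic competitive model, rmin/rmax fixed from direct binding.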
# Cytotoxicity assay, LX2 = type: cell-based; settings: human, LX2 cells, viability dye, flow cytometry
# Method: as §1, §2
smiles,measurement,setting,value
"CC(=O)N(c1cc(C(=O)O)cc2[nH]ccc12)[C@@H]1O[C@H](CO)[C@@H](S[C@@H]2O[C@H](CO)[C@H](O)[C@H](n3cc(-c4cccc(F)c4)nn3)[C@H]2O)[C@H](O)[C@H]1O [Compound 11, N-[4-S-(3-Deoxy-3-(4-(3-fluorophenyl)-1H-1,2,3-triazol-1-yl)-β-D-galactopyranosyl)-4-thio-β-D-glucopyranosyl]-N-(6-carboxy-1H-indol-4-yl)acetamide]",CC50 at 24 h,"Cytotoxicity assay, THP1",> 300000 nM
same,microsomal CLint at 10 μM,[1],< 2 µL/min/mg
same,microsomal CLint at 10 μM,[2],< 2 µL/min/mg
same,solubility kinetic at 2 h,[3],> 100 µM
same,CC50 at 24 h,[4],> 300000 nM
same,CC50 at 24 h,[5],> 300000 nM
same,CC50 at 24 h,[6],> 300000 nM
same,IC50,"[7]; CSV supplement, unrounded mean, read-out: Gal3C_IC50_mean_uM",57.7 nM
same,Kd,"[7]; CSV supplement, unrounded mean, read-out: Gal3C_Kd_mean_uM",5.71 nM
same,Kd,"[7]; competitive fluorescence polarization, mean ± SD, read-out: Kd Gal-3C",5.7 ± 2 nM
same,IC50,"[7]; four-parameter logistic model, mean ± SD, read-out: IC50 Gal-3C",58 ± 10 nM
same,CC50 at 24 h,"Cytotoxicity assay, LX2",> 300000 nM
